Experimental data from US8815809B2, “Cysteine protease inhibitors” (Medivir UK Ltd, priority 2009, dated 2014).

Experiments:
Type in all cases: biochemical
human cathepsin L = human cathepsin L (Homo sapiens, UniProt P07711); experiment: Cathepsin L Ki; details: H-D-Val-Leu-Lys-AMC substrate, pH 5.5, read-out: Ki Cat. L
Experimental: The procedure above with the following amendments is used for the determination of Ki for cathepsin L.
The enzyme is commercially available human cathepsin L (for example Calbiochem). The substrate is H-D-Val-Leu-Lys-AMC available from Bahcem. The assay buffer is 100 mM sodium acetate 1 mM EDTA, pH5.5) The DMSO stock (10 mM in 100% DMSO) is diluted to 10% in assay buffer. Enzyme is prepared at 5 nM concentration in assay buffer plus 1 mM dithiothreitol just before use. 2 μL of 10 mM inhibitor made up in 100% DMSO is dispensed into row A. 10 μL of 50 μM substrate (=1/200 dilution of 10 mM stock in DMSO, diluted in assay buffer).
(§1) Potential inhibitors are screened using the above assay with variable concentrations of test compound. Reactions were initiated by addition of enzyme to buffered solutions of substrate and inhibitor. Ki values were calculated according to equation 1.
(§2) [formula] where v0 is the velocity of the reaction, V is the maximal velocity, S is the concentration of substrate with Michaelis constant of KM, and I is the concentration of inhibitor.

human cathepsin S = target: T1, human cathepsin S (Homo sapiens, UniProt P25774); experiment: Cathepsin S Ki determination; details: baculovirus-expressed human cathepsin S, boc-Val-Leu-Lys-AMC substrate, pH 6.5; read-out: Ki Cat. S
T1 construct: made in house; host or cells: baculovirus expression system
Experimental: The assay uses baculovirus-expressed human cathepsin S and the boc-Val-Leu-Lys-AMC fluorescent substrate available from Bachem in a 384 well plate format, in which 7 test compounds can be tested in parallel with a positive control comprising a known cathepsin S inhibitor comparator.
280 μL/well of 12.5% DMSO are added to rows B-H of two columns of a 96 deep well polypropylene plate. 70 μL/well of substrate is added to row A. 2×250 μL/well of assay buffer (100 mM Na phosphate, 100 mM NaCl, pH 6.5) is added to row A, mixed, and double diluted down the plate to row H.
100 μL/well of assay buffer is added to columns 2-5 and 7-12 of 4 rows of a 96 well V bottom polypropylene plate. 200 μL/well of assay buffer is added to columns 1 and 6.
The first test compound prepared in DMSO is added to column 1 of the top row, typically at a volume to provide between 10 and 30 times the initially determined rough K1. The rough K, is calculated from a preliminary run in which 10 μL/well of 1 mM boc-VLK-AMC (1/10 dilution of 10 mM stock in DMSO diluted into assay buffer) is dispensed to rows B to H and 20 μl/well to row A of a 96 well Microfluor™ plate. 2 μl of each 10 mM test compound is added to a separate well on row A, columns 1-10. Add 90 μl assay buffer containing 1 mM DTT and 2 nM cathepsin S to each well of rows B-H and 180 μl to row A. Mix row A using a multichannel pipette and double dilute to row G. Mix row H and read in the fluorescent spectrophotometer.
The second test compound is added to column 6 of the top row, the third to column 1 of the second row etc. Add 1 μL of comparator to column 6 of the bottom row. Mix column 1 and double dilute to column 5. Mix column 6 and double dilute to column 10.
Using an 8-channel multistepping pipette set to 5×10 μL, distribute 10 μL/well of substrate to the 384 well assay plate. Distribute the first column of the substrate dilution plate to all columns of the assay plate starting at row A. The tip spacing of the multichannel pipette will correctly skip alternate rows. Distribute the second column to all columns starting at row B.
Using a 12-channel multistepping pipette set to 4×10 μL, distribute 10 μL/well of inhibitor to the 384 well assay plate. Distribute the first row of the inhibitor dilution plate to alternate rows of the assay plate starting at A1. The tip spacing of the multichannel pipette will correctly skip alternate columns. Similarly, distribute the second, third and fourth rows to alternate rows and columns starting at A2, B1 and B2 respectively.
Mix 20 mL assay buffer and 20 μL 1M DTT. Add sufficient cathepsin S to give 2 nM final concentration.
Using the a distributor such as a Multidrop 384, add 30 μL/well to all wells of the assay plate and read in fluorescent spectrophotometer such as an Ascent.
Fluorescent readings, (excitation and emission wavelengths 390 nm and 460 nm respectively, set using bandpass filters) reflecting the extent of enzyme cleavage of the fluorescent substrate, […] the inhibitor, are linear rate fitted for each well.
Fitted rates for all wells for each inhibitor are fitted to the competitive inhibition equation using SigmaPlot 2000 to determine V, Km and Ki values.
as §1, §2

cathepsin K = target: T2, cathepsin K (Homo sapiens, UniProt P43235); experiment: Determination of cathepsin K proteolytic catalytic activity (Ki); details: human recombinant enzyme, H-D-Ala-Leu-Lys-AMC substrate; read-out: Ki Cat. K
T2 construct: made in house; host or cells: not fixed: E. coli, Pichia or Baculovirus systems are named as options
T2 sequence (P43235 115-329): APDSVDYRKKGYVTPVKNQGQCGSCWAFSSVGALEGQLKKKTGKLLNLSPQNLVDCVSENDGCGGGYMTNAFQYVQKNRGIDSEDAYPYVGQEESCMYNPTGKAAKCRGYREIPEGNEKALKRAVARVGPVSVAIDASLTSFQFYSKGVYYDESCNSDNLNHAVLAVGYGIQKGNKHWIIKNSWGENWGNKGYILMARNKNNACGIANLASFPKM
Experimental: Convenient assays for cathepsin K are carried out using human recombinant enzyme, such as that described in PDB.
The recombinant cathepsin K can be expressed in a variety of commercially available expression systems including E. coli, Pichia and Baculovirus systems. The purified enzyme is activated by removal of the prosequence by conventional methods.
Standard assay conditions for the determination of kinetic constants used a fluorogenic peptide substrate, typically H-D-Ala-Leu-Lys-AMC, and were determined in either 100 mM Mes/Tris, pH 7.0 containing 1 mM EDTA and 10 mM 2-mercaptoethanol or 100 mM Na phosphate, imM EDTA, 0.1% PEG4000 pH 6.5 or 100 mM Na acetate, pH 5.5 containing 5 mM EDTA and 20 mM cysteine, in each case optionally with […] as stabiliser. The enzyme concentration used was 5 nM. The stock substrate solution was prepared at 10 mM in DMSO. Screens were carried out at a fixed substrate concentration of 60 μM and detailed kinetic studies with doubling dilutions of substrate from 250 μM. The total DMSO concentration in the assay was kept below 3%. All assays were conducted at ambient temperature. Product fluorescence (excitation at 390 nm, emission at 460 nm) was monitored with a Labsystems Fluoroskan Ascent fluorescent plate reader. Product progress curves were generated over 15 minutes following generation of AMC product.
as §1, §2

T1 sequence (P25774 115-331): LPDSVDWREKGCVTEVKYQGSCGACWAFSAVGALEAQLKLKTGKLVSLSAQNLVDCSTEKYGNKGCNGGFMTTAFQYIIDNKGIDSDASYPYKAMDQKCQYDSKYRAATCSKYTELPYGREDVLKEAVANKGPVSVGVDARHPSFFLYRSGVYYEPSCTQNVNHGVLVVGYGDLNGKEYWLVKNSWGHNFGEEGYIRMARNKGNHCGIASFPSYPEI
Sequence of human cathepsin L (P07711 114-333): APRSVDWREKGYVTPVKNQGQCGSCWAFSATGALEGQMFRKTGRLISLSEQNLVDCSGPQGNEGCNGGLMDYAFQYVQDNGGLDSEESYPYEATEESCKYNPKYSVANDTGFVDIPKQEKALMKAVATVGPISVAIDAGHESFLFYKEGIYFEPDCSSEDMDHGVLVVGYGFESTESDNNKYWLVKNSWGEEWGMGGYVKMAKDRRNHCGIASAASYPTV

Row | Ki (human cathepsin L) [nM] | Ki (human cathepsin S) [nM] | Ki (cathepsin K) [nM] | Structure (SMILES)
1 | 4900 | 22 | 1400 | CCOC(=O)N[C@@H](CC1(F)CCCC1)C(=O)NC1(C(=O)C(=O)NCCCN2CCN(C)CC2)CCC1 [Example 63]
2 | 2400 | 1.1 | 640 | CCOC(=O)NC(CC1(F)CCCC1)C(=O)NC1(C(=O)C(=O)Nc2ccn(C)n2)CC(OC)C1 (stereo not drawn) [Example 68]
3 | 2100 | 2.2 | 340 | Cn1ccc(NC(=O)C(=O)C2(NC(=O)[C@H](CC3(F)CCCC3)NC(=O)OC3COC3)CCC2)n1 [Example 59, {2-(1-Fluoro-cyclopentyl)-1-[1-(1-methyl-1H-pyrazol-3-ylaminooxalyl)-cyclobutylcarbamoyl]-ethyl}-carbamic acid oxetan-3-yl ester]
4 | 25000 | 14 | 3800 | CC(C)(C)OC(=O)N[C@@H](CC1(F)CCCC1)C(=O)NC1(C(=O)C(=O)NC2CC2)CC(F)C1 (stereo partly drawn) [Example 22]
5 | 990 | 1.8 | 440 | CC(CF)OC(=O)NC(CC1(F)CCCC1)C(=O)NC1(C(=O)C(=O)Nc2ccn(C)n2)CCC1 (stereo not drawn) [Example 56, {2-(1-Fluoro-cyclopentyl)-1-[1-(1-methyl-1H-pyrazol-3-ylaminooxalyl)-cyclobutylcarbamoyl]-ethyl}-carbamic acid 2-fluoro-1-methyl-ethyl ester]
6 | 720 | 0.79 | 290 | CC(C)(C)OC(=O)N[C@@H](CC1(F)CCCC1)C(=O)NC1(C(=O)C(=O)Nc2cc[nH]n2)CCC1 [Example 57, {2-(1-Fluoro-cyclopentyl)-1-[1-(1H-pyrazol-3-ylaminooxalyl)-cyclobutylcarbamoyl]-ethyl}-carbamic acid tert-butyl ester]
7 | 2100 | 0.7 | 1400 | CCOC(=O)NC(CC1(C)CCCC1)C(=O)NC1(C(=O)C(=O)Nc2ccn(C)n2)CC(OC)C1 (stereo not drawn) [Example 70]
8 | 10000 | 7.8 | 4400 | CC1(C[C@H](NC(=O)OC(C)(C)C)C(=O)NC2(C(=O)C(=O)NC3CC3)CCC2)CCCC1 [Example 24]
9 | 1100 | 0.8 | 250 | COC1CC(NC(=O)[C@H](CC2(F)CCCC2)NC(=O)OC(C)(C)C)(C(=O)C(=O)Nc2ccn(C)n2)C1 (single isomer, unassigned) [Example 73, {2-(1-Fluoro-cyclopentyl)-1-[3-methoxy-1-(1-methyl-1H-pyrazol-3-ylaminooxalyl)-cyclobutylcarbamoyl]-ethyl}-carbamic acid tert-butyl ester]
10 | 330 | 4.7 | 150 | Cn1ccc(NC(=O)C(=O)C2(NC(=O)C(CC3(C)CCC3)NC(=O)OC(C)(C)C)CC(F)C2)n1 (stereo not drawn) [Example 19]
11 | 1100 | 1 | 610 | Cn1cnc(NC(=O)C(=O)C2(NC(=O)[C@H](CC3(C)CCCC3)NC(=O)OC(C)(C)C)CCC2)c1 [Example 11]
12 | 4800 | 3.6 | 1100 | COC(=O)N[C@@H](CC1(C)CCCC1)C(=O)N[C@]1(C(=O)C(=O)Nc2ccn(C)n2)C[C@@H](F)C1 [Example 1]
13 | 3300 | 1 | 1200 | CCOC(=O)NC(CC1(C)CCCC1)C(=O)NC1(C(=O)C(=O)Nc2ccn(C)n2)CC(F)C1 (stereo not drawn) [Example 8]
14 | 850 | 6 | 1100 | Cn1ccc(NC(=O)C(=O)C2(NC(=O)C(CC3CCCC3)NC(=O)OC(C)(C)C)CC(F)C2)n1 (stereo not drawn) [Example 45]
15 | 1200 | 1.8 | 410 | CC(C)OC(=O)NC(CC1(F)CCCC1)C(=O)NC1(C(=O)C(=O)Nc2ccn(C)n2)CC(F)C1 (stereo not drawn) [Example 31]
16 | > 200000 | 30 | 95000 | Cc1csc(NC(=O)C(=O)C2(NC(=O)[C@H](CC3(C)CCCC3)NC(=O)OC(C)(C)C)CCC2)n1 [Example 20]
17 | 360 | 0.55 | 170 | Cn1ccc(NC(=O)C(=O)C2(NC(=O)[C@H](CC3(F)CCCC3)NC(=O)OC(C)(C)C)CC(F)(F)C2)n1 [Example 10]
18 | 560 | 0.65 | 100 | [2H]C([2H])([2H])n1ccc(NC(=O)C(=O)C2(NC(=O)C(CC3(F)CCCC3)NC(=O)OC(C)(C)C)CC(F)C2)n1 (stereo not drawn) [Example 50]
19 | 660 | 0.65 | 240 | COC1CC(NC(=O)[C@H](CC2(F)CCCC2)NC(=O)OC(C)(C)C)(C(=O)C(=O)Nc2ccn(C)n2)C1 (stereo partly drawn) [Example 49]
20 | 3300 | 11 | 430 | CCOC(=O)NC(CC(C)(C)C)C(=O)NC1(C(=O)C(=O)Nc2ccn(C)n2)CC(F)C1 (stereo not drawn) [Example 4]
21 | 270 | 0.4 | 98 | Cn1ccc(NC(=O)C(=O)C2(NC(=O)[C@H](CC3(F)CCCC3)NC(=O)OC(C)(C)C)CCC2)n1 [Example 52]
